How the values were obtained:
C57BL/6J mice = experiment: high fat diet fed C57BL/6J mice treated with Rimonabant; type: in vivo, mouse; details: HFD mice, 10 mg.kg−1.day−1 for one month
Source text: C57BL/6J mice, which are obesity-prone (Collins S. et al., 2004) were fed for 6 months with a high fat diet (HFD).

Sipa1l1 = experiment: retroviral shRNA transduction of 3T3-L1 cells, Sipa1l1 mRNA by RT-PCR; type: cell-based, mouse; details: day 0 prior differentiation
Protocol: 3T3-L1 cells were cultured in DMEM (Gibco) with 10% FBS (Gibco) at 5% CO2. After retroviral infection (see below), cells were allow to grow to confluence in either 100-mm or 60-mm dishes in DMEM with 10% FBS. Once confluence was reached, cells were exposed to differentiation medium containing dexamethasone (1 μM), insulin (5 μg/ml), and isobutylmethylxanthine ([…]) (DMI). After 2 days cells were maintained in medium containing insulin (5 μg/ml) until ready for harvest at 7 days.
Retroviruses were constructed in the RNAi-Ready pSIREN-RetroQ ZsGreen (pSIREN Clontech) or pMSCV puromycin plasmid (pMSCV, Clontech). Viral constructs were transfected using calcium-phosphate method described in Jordan M. et al (2004) into 293 HEK packaging cells along with constructs encoding gag-pol and the VSV-G protein. Supernatants were harvested after 48 h in presence of 3 μm of Trichostatin A (Sigma) and either used immediately or snap frozen and stored at −80° C. for later use. Viral supernatants were added to the cells for 6 hours in the presence of polybrene (4 μg/ml) and diluted two times with fresh medium for the next 15 hours.
Total RNA was isolated from cultured cells using peqGOLD TriFast reagent according to the manufacturer's instructions (Axonlab). First strand cDNA was synthesized from 0.5 μg of total RNA using random primers and Superscript II (Invitrogen). […]

## Cc1c(C(=O)NN2CCCCC2)nn(-c2ccc(Cl)cc2Cl)c1-c1ccc(Cl)cc1 [Rimonabant]
C57BL/6J mice
  body weight: normalize
  glucose tolerance: normalized

B1: shLuc: control shRNA against the firefly luciferase protein (SEQ ID NO. 7) (nucleic acid)
chain: GATCCGTGCGTTGCTAGTACCAATTCAAGAGATTGGTACTAGCAACGCACTTTTTTACGCGTG
modifications: the letters are possibly those of the target site
Sipa1l1
  knockdown of Sipa1l1 mRNA: no inhibition
